# Tests used:
# Assay type in all cases: cell-based
# human TLR7 = molecular target: T1, human TLR7 (Homo sapiens, UniProt Q9NYK1); test: TLR7 inhibition reporter assay (HEK-Blue SEAP reporter); details: HEK-Blue cells overexpressing human TLR7; gardiquimod 7.5 μM; 22 hour incubation
# T1 construct: host or cells: HEK-Blue cells
# T1 sequence (Q9NYK1 27-1049): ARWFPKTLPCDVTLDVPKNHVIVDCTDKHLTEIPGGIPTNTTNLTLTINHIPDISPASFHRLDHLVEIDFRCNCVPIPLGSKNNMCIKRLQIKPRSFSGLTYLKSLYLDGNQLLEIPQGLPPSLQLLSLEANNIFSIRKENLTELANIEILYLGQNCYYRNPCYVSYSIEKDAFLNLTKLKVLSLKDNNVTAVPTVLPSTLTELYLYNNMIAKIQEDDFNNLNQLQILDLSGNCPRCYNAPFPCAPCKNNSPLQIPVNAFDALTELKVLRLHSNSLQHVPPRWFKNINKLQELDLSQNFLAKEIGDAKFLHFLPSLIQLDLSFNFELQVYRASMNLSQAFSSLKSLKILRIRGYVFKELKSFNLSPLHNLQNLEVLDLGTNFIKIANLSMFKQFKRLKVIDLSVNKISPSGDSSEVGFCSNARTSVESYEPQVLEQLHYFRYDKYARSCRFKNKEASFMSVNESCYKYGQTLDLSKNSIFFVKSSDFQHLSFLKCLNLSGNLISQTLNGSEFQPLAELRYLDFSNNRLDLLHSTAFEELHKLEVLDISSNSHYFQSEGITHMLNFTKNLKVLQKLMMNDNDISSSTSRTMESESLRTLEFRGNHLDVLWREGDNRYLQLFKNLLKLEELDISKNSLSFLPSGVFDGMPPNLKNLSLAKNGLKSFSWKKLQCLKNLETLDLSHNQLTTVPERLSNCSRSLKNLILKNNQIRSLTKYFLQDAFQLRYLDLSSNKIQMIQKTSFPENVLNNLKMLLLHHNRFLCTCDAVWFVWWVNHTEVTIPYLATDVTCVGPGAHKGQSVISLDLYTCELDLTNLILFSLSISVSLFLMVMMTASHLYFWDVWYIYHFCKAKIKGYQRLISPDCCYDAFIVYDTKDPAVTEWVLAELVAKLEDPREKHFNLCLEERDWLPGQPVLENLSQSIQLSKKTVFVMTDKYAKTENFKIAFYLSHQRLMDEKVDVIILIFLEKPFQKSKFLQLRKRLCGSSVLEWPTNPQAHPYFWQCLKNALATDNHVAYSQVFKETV
# Outline: (§1)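 HEK-Blue cells overexpressing human TLR7, TLR8 or TLR9 carry a SEAP reporter driven by NF-κB/AP-1 sites. Compounds (0.05 nM–50 μM) were preincubated 30 min at room temperature, then cells were stimulated with gardiquimod 7.5 μM (TLR7), R848 15.9 μM (TLR8) or ODN2006 5 nM (TLR9) for 22 h at 37 °C.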
# human TLR8 = molecular target: T2, human TLR8 (Homo sapiens, UniProt Q9NR97); test: TLR8 inhibition reporter assay (HEK-Blue SEAP reporter); details: HEK-Blue cells overexpressing human TLR8; R848 15.9 μM; 22 hour incubation
# T2 construct: host or cells: HEK-Blue cells
# T2 sequence (Q9NR97 27-1041): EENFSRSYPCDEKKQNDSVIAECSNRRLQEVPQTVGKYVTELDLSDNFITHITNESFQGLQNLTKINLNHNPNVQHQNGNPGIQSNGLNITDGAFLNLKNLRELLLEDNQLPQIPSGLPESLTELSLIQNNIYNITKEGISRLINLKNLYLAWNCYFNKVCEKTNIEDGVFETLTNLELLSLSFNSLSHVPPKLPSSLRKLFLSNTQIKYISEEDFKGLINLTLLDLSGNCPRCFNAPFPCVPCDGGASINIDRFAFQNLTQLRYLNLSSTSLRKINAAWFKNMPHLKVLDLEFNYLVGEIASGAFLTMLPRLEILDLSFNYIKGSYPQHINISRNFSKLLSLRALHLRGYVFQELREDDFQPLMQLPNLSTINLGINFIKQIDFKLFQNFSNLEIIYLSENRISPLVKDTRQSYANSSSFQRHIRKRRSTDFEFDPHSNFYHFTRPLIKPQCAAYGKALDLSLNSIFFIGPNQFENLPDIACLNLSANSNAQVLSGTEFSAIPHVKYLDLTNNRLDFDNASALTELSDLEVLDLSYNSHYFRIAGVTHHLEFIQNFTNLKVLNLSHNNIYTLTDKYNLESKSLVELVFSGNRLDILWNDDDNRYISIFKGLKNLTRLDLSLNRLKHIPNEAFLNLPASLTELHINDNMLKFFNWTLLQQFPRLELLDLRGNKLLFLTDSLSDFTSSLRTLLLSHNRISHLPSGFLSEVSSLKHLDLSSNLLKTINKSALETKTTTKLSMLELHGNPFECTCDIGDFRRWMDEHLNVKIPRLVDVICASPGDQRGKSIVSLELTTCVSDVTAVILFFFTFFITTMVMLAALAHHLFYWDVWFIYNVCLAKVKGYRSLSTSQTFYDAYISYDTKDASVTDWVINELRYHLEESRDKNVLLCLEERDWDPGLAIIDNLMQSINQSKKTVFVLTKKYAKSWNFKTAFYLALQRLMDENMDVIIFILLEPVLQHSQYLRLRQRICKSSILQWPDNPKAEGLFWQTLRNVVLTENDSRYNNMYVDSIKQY
# Outline: as §1
# human TLR9 = molecular target: T3, human TLR9 (Homo sapiens, UniProt Q9NR96); test: TLR9 inhibition reporter assay (HEK-Blue SEAP reporter); details: HEK-Blue cells overexpressing human TLR9; ODN2006 5 nM; 22 hour incubation
# T3 construct: host or cells: HEK-Blue cells
# T3 sequence (Q9NR96 26-1032): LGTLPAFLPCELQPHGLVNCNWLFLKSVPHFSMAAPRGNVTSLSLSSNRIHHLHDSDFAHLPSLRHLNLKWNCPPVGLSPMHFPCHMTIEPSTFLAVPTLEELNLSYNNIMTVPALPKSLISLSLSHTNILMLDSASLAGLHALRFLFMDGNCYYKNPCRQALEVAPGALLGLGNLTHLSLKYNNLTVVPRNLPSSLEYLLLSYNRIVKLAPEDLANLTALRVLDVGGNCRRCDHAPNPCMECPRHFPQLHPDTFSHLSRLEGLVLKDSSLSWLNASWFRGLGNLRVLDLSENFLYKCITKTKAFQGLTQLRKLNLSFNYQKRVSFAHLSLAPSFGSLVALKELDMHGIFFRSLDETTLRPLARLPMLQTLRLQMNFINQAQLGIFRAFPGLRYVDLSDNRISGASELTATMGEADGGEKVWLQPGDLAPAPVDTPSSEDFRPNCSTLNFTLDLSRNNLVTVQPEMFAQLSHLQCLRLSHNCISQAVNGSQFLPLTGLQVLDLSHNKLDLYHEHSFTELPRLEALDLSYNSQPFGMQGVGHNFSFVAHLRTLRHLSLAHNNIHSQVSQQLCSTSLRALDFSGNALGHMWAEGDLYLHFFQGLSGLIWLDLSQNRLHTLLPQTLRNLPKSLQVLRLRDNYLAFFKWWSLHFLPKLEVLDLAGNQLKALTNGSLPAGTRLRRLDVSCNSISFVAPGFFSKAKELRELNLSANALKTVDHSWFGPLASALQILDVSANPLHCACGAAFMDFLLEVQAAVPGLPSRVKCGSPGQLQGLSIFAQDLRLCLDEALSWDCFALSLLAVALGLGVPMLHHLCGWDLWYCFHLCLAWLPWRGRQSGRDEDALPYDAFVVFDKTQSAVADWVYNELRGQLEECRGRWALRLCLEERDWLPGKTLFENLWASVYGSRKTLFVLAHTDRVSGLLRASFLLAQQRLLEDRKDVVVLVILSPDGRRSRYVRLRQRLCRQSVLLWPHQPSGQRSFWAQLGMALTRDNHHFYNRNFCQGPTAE
# Outline: as §1
Structure (SMILES),IC50 (human TLR7) [nM],IC50 (human TLR8) [nM],IC50 (human TLR9) [nM]
"CCc1c(-c2ccc(OC)c(OC)c2)[nH]c2ccc(N3CCN(C4CCN(CC(C)C)CC4)CC3)cc12 [Example 177, 2-(3,4-dimethoxyphenyl)-3-ethyl-5-(4-(1-isobutylpiperidin-4-yl)piperazin-1-yl)-1H-indole]",166,11,1540
"CCc1c(-c2ccc(OC)c(OC)c2)[nH]c2ccc(N3CCC4(CCN(C)CC4)CC3)cc12 [Example 181, 3-(2-(3,4-dimethoxyphenyl)-3-ethyl-1H-indol-5-yl)-9-methyl-3,9-diazaspiro[5.5]undecane]",54,74,517
"CCc1c(-c2ccnc3[nH]ncc23)[nH]c2ccc(N3CCC(OC4CCN(C(C)C)CC4)CC3)cc12 [Example 185, 4-(3-ethyl-5-(4-((1-isopropylpiperidin-4-yl)oxy)piperidin-1-yl)-1H-indol-2-yl)-1H-pyrazolo[3,4-b]pyridine]",15000,18600,1410
"COc1ccc(-c2[nH]c3ccc(N4CCC(OC5CCN(C)CC5)CC4)cc3c2C(C)C)cc1OC [Example 187, 2-(3,4-dimethoxyphenyl)-3-isopropyl-5-(4-((1-methylpiperidin-4-yl)oxy)piperidin-1-yl)-1H-indole]",83,167,1450
"CCN1CCC(OC2CCN(c3ccc4[nH]c(-c5ccc(OC)c(OC)c5)c(C(C)C)c4c3)CC2)CC1 [Example 190, 2-(3,4-dimethoxyphenyl)-5-(4-((1-ethylpiperidin-4-yl)oxy)piperidin-1-yl)-3-isopropyl-1H-indole]",33,35,667
"COc1ccc(-c2[nH]c3ccc(N4CCC(NC5CCN(C(C)C)CC5)CC4)cc3c2C(C)C)cc1OC [Example 192, 1-(2-(3,4-dimethoxyphenyl)-3-isopropyl-1H-indol-5-yl)-N-(1-isopropylpiperidin-4-yl)piperidin-4-amine]",36,7.7,322

# Continued by falling IC50 (human TLR7), values first:
IC50 (human TLR7) [nM],IC50 (human TLR8) [nM],IC50 (human TLR9) [nM],Structure (SMILES)
1210,1590,2850,"CCc1c(-c2ccc(OC)c(OC)c2)[nH]c2cc(C)c(N3CCC4(CC3)CCN(C(C)C)CC4)cc12 [Example 186, 3-(2-(3,4-dimethoxyphenyl)-3-ethyl-6-methyl-1H-indol-5-yl)-9-isopropyl-3,9-diazaspiro[5.5]undecane]"
95,59,672,"CCc1c(-c2ccc(OC)c(OC)c2)[nH]c2ccc(N3CCC4(CC3)CCN(C(C)C)CC4)cc12 [Example 183, 3-(2-(3,4-dimethoxyphenyl)-3-ethyl-1H-indol-5-yl)-9-isopropyl-3,9-diazaspiro[5.5]undecane]"
87,66,836,"CCc1c(-c2ccc(OC)c(OC)c2)[nH]c2ccc(N3CCC(OC4CCN(C(C)C)CC4)CC3)cc12 [Example 191, 2-(3,4-dimethoxyphenyl)-3-ethyl-5-(4-((1-isopropylpiperidin-4-yl)oxy)piperidin-1-yl)-1H-indole]"
